# In PMC11279551, “Pharmacokinetics and Enterohepatic Circulation of 2-(Quinoline-8-carboxamido)benzoic Acid (2-QBA) in Mice” (Pharmaceutics, 2024):
# Read-outs that look alike come from different tables or passages of the source.
# Legend:
# [1] = Pharmacokinetics after PO administration in mice; assay type: in vivo; details: for BA: vs IV AUCinf at 1 mg/kg; for AUC(0-t): read-out: AUC24h; for Cmax: read-out: Cmax,1; for Tmax: po
# Method: Male ICR mice (7 weeks old, […]; Samtako, Osan, Korea) were acclimated to the animal facility at Kyungpook National University for one week with free access to animal chow and water. In the per oral administration (PO) groups, the mice were fasted for 14–16 h prior to the administration of 2-QBA.
# After the PO administration of 2-QBA (2 mg/kg in 5 mL of saline containing 10% DMSO) using an oral gavage for 10 mice, blood samples were collected at 0.25, 0.75, 2, and 8 h from 5 mice and at 0.5, 1, 4, and 24 h from another 5 mice. Ten mice in each group were administered 5 mg/kg or 15 mg/kg of 2-QBA using an oral gavage and blood was drawn using the same protocol described above. All blood samples were centrifuged at 13,000× g for 1 min and the supernatant plasma (30 μL) was stored at −80 °C until the analysis of the 2-QBA. For the analysis of 2-QBA in the plasma samples, 120 μL of IS solution (berberine 1 ng/mL in acetonitrile) was added to plasma samples (30 μL). The mixture was vigorously vortexed for 5 min and then centrifuged at 13,000× g for 5 min. The supernatant was transferred to autosampler vials. Subsequently, a 3 μL aliquot was injected into the LC-MS/MS system.
# WinNonlin 5.1 software (Pharsight Co., Mountain View, CA, USA) was used to calculate the pharmacokinetic parameters. AUClast and AUCinf indicate the areas under the plasma concentration curve from 0 h to the last sample and from 0 h to infinity, respectively; these were estimated using the linear trapezoidal method. T1/2 is the elimination half-life, which is estimated from the elimination coefficient (k) (i.e., 0.693/k), and MRT is the mean residence time. CL is the total clearance, which is calculated by dividing the dose by AUCinf. Vdss is the volume of the distribution at a steady state, calculated from MRTxCL. CLrenal and CLfeces are calculated by dividing the amount excreted in urine and feces by the AUCinf, respectively. CLmetabolism is calculated by subtracting CLrenal and CLfeces from CL. Cmax and Tmax are the maximum plasma concentration and time to reach Cmax, respectively. BA is calculated by dividing the dose-normalized AUCinf for PO administration (AUCinf/PO dose) by the dose-normalized AUCinf for IV administration (AUCinf/IV dose). All data are expressed as the mean ± standard deviation (SD).
# [2] = Urinary and fecal excretion of 2-QBA and 2-QBA-Glu with vehicle or AC treatment (β-glucuronidase treatment); assay type: in vivo; details: mice; for urinary excretion rate: PO 2 mg/kg
# Method: In total, […] were administered 2-QBA (1 mg/kg/3 mL) via the tail vein. Two hours after the 2-QBA dosing, AC (0.8 g/kg/5 mL in distilled water) or a vehicle (5 mL/kg distilled water) was administrated via oral gavage. Each group included ten mice who were randomly divided into two groups for sparse sampling. Blood collection was performed at 0.083, 0.5, 2, and 8 h from 5 mice and at 0.25, 1, 4, and 24 h from another 5 mice, as described previously. Four mice treated with either AC (0.8 g/kg) or the vehicle 2 h after the 2-QBA IV dosing (1 mg/kg) were returned to a metabolic cage to collect the urine and feces samples. The urine and feces samples were collected for 72 h.
# Next, 2-QBA was administered PO (2 mg/kg/5 mL) with or without AC (0.8 g/kg in 3 mL of DW), which was administered via oral gavage 2 h after the 2-QBA dosing. Each group included eight mice who were randomly divided into two groups for sparse sampling. Blood collection was performed at 0.25, 0.75, 2, and 8 h from 4 mice and at 0.5, 1, 4, and 24 h from another 4 mice, as described previously. Four mice treated with either AC (0.8 g/kg) or vehicle 2 h after the 2-QBA PO dosing (2 mg/kg) were returned to a metabolic cage to collect the urine and feces samples. The urine and feces samples were collected for 72 h.
# Aliquots of plasma samples (30 μL) were added to 120 μL of IS solution. The mixture was vigorously vortexed for 5 min and then centrifuged at 13,000× g for 5 min. The supernatant was transferred to autosampler vials. Subsequently, a 3 μL aliquot was injected into the LC-MS/MS system. Aliquots (30 μL) of urine and 10% feces homogenate samples were added to 60 μL of 150 mM sodium acetate buffer (pH 5.0) in the presence or absence of β-glucuronidase (900 unit) at 37 °C for 2 h. […]
# Then, we quantified the 2-QBA and 2-QBA-Glu from the urine and fecal samples obtained from the mice after IV or PO administration of 2-QBA. In addition, the amount of 2-QBA-Glu was calculated by subtracting the control 2-QBA from the total 2-QBA with β-glucuronidase treatment. […]
# Plasma protein binding = assay type: in vitro ADME; details: n = 6, read-out: plasma protein binding rate (converted)
# [3] = male, ICR, mouse, plasma, PO 2 mg/kg
# [4] = male, ICR, mouse, plasma, PO 5 mg/kg
# [5] = male, ICR, mouse, plasma, PO 15 mg/kg
smiles,measurement,setting,value
"O=C(O)c1ccccc1NC(=O)c1cccc2cccnc12 [2-QBA, 2-(quinoline-8-carboxamido)benzoic acid]",mean absorption time (MRTPO–MRTIV),[1],8.02 h
same,AUC24h/dose,[1]; PO 2 mg/kg,684.2 ± 340.3 ng·h/mL/mg/kg
same,AUCinf/dose,[1]; PO 2 mg/kg,712.7 ± 348.0 ng·h/mL/mg/kg
same,BA,[1]; PO 2 mg/kg,68.3%
same,AUC24h/dose,[1]; PO 5 mg/kg,702.9 ± 169.2 ng·h/mL/mg/kg
same,AUCinf/dose,[1]; PO 5 mg/kg,873.7 ± 186.9 ng·h/mL/mg/kg
same,BA,[1]; PO 5 mg/kg,83.7%
same,AUC24h/dose,[1]; PO 15 mg/kg,705.5 ± 182.3 ng·h/mL/mg/kg
same,AUCinf/dose,[1]; PO 15 mg/kg,734.7 ± 176.3 ng·h/mL/mg/kg
same,BA,[1]; PO 15 mg/kg,70.4%
same,AUC(0-inf),[1]; [3],1430 ± 696 ng·h/mL
same,MRT,[1]; [3],12 ± 4.91 h
same,half-life,[1]; [3],469 ± 106 min
same,AUC(0-t),[1]; [3],1370 ± 680 ng·h/mL
same,Cmax,[1]; [3],283 ± 174 ng/mL
same,AUC(0-inf),[1]; [4],4370 ± 934 ng·h/mL
same,MRT,[1]; [4],13.7 ± 3.14 h
same,half-life,[1]; [4],595 ± 115 min
same,AUC(0-t),[1]; [4],3510 ± 846 ng·h/mL
same,Cmax,[1]; [4],752 ± 319 ng/mL
same,AUC(0-inf),[1]; [5],11000 ng·h/mL
same,MRT,[1]; [5],7.04 ± 0.76 h
same,half-life,[1]; [5],335 ± 74.4 min
same,AUC(0-t),[1]; [5],10600 ng·h/mL
same,Cmax,[1]; [5],2460 ± 696 ng/mL
same,bioavailability,"[1]; male, ICR, mouse, plasma, PO 2.0, 5.0 and 15 mg/kg, read-out: absolute oral bioavailability (BA) range",68.3 to 83.7%
same,Tmax,"[1]; male, ICR, mouse, plasma, 2 mg/kg, PO 2 mg/kg, read-out: Tmax,1",12 ± 6.6 min
same,Tmax,"[1]; male, ICR, mouse, plasma, 2 mg/kg, PO 2 mg/kg, read-out: Tmax,2",~336 min
same,Tmax,"[1]; male, ICR, mouse, plasma, 5 mg/kg, PO 5 mg/kg, read-out: Tmax,1",15 min
same,Tmax,"[1]; male, ICR, mouse, plasma, 15 mg/kg, PO 15 mg/kg, read-out: Tmax,1",18 ± 6.6 min
same,Tmax,"[1]; male, ICR, mouse, plasma, PO 2-15 mg/kg, read-out: Tmax,1 (range over doses)",12 to 18 min
same,Tmax,"[1]; male, ICR, mouse, plasma, PO 2-15 mg/kg, read-out: Tmax,2 (range over doses)",210 to 336 min
same,dose excreted,"[2]; ICR, mouse, faeces, 1 mg/kg, IV injection of 2-QBA, read-out: fecal recovery rate",< 5%
same,urinary excretion rate,[2]; with AC (0.8 g/kg),17.5 % of the administered PO dose
same,urinary excretion rate,[2]; without AC,27.7 % of the administered PO dose
same,fraction unbound,Plasma protein binding,0.128
